# Measured values reported in patent US20020137929A1, “1 - (3-heterocyclylphenyl) isothiourea, -isourea, -guanidine and -amidine herbicidal agents” (Intellectual Property Department, BASF Aktiengesellschaft, priority 1998, published 2002).
# Assays:
# [1] = test system: ABUTH (Velvetleaf); experiment: Postemergence herbicidal evaluation; format: in vivo, Abutilon theophrasti; conditions: postemergence
# In short: (§1)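 Scores (0–9) reflect plant stand, vigor, malformation, size, chlorosis and general appearance relative to control, read 4 to 5 weeks after treatment and averaged where tests were repeated. Application: about 0.0156–0.500 kg/ha sprayed at 40 psi onto two-week seedlings.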
# [2] = test system: AMBEL (Ragweed, Common); experiment: Postemergence herbicidal evaluation; format: in vivo, Ambrosia artemisifolia; conditions: postemergence
# In short: as §1
# [3] = test system: IPOHE (Morningglory, Ivyleaf); experiment: Postemergence herbicidal evaluation; format: in vivo, Ipomoea hederacea; conditions: postemergence
# In short: as §1
# [4] = test system: ECHCG (Barnyardgrass); experiment: Postemergence herbicidal evaluation; format: in vivo, Echinochloa crus-galli; conditions: postemergence
# In short: as §1
# [5] = test system: SETVI (Foxtail, Green); experiment: Postemergence herbicidal evaluation; format: in vivo, Setaria viridis; conditions: postemergence
# In short: as §1
# [6] = test system: GLXMAW (Soybean, Williams); experiment: Postemergence herbicidal evaluation; format: in vivo, Glycine max, (L.) Merr. cv Williams; conditions: postemergence
# In short: as §1
# [7] = test system: TRZAWR (Wheat, Winter, cv Riband); experiment: Postemergence herbicidal evaluation; format: in vivo, Triticum aestivum; conditions: postemergence
# In short: as §1
# [8] = test system: CASOB (Sicklepod); experiment: Preemergence herbicidal evaluation; format: in vivo, Cassia obtusifolia; conditions: rated 4-5 weeks after treatment, rating scale 0-9
# In short: (§2)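 Seeds were mixed with potting soil and planted on about one inch of soil, then sprayed with test compound in aqueous acetone at about 0.0156 to 0.500 kg per hectare. Plants grew under standard greenhouse care and were visually rated 0-9 against untreated controls 4-5 weeks post-treatment.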
# [9] = test system: CHEAL (Lambsquarters, Common); experiment: Preemergence herbicidal evaluation; format: in vivo, Chenopodium album; conditions: rated 4-5 weeks after treatment, rating scale 0-9
# In short: as §2
# [10] = test system: GALAP (Galium); experiment: Preemergence herbicidal evaluation; format: in vivo, Galium aparine; conditions: rated 4-5 weeks after treatment, rating scale 0-9
# In short: as §2
# [11] = test system: IPOHE (Morningglory, Ivyleaf); experiment: Preemergence herbicidal evaluation; format: in vivo, Ipomoea hederacea; conditions: rated 4-5 weeks after treatment, rating scale 0-9
# In short: as §2
# [12] = test system: ECHCG (Barnyardgrass); experiment: Preemergence herbicidal evaluation; format: in vivo, Echinochloa crus-galli; conditions: rated 4-5 weeks after treatment, rating scale 0-9
# In short: as §2
# [13] = test system: ZEAMX (Corn, Field); experiment: Preemergence herbicidal evaluation; format: in vivo, Zea mays; conditions: rated 4-5 weeks after treatment, rating scale 0-9
# In short: as §2
structure (smiles),measurement,setting,value
"CCOC(=O)CN1C(=O)C(COC)SC1=Nc1cc(-n2c(=O)cc(C(F)(F)F)n(C)c2=O)c(F)cc1Cl (centres unmarked) [Compound 156, Ethyl 2-{{2-chloro-5-[3,6-dihydro-3-methyl-2,6-dioxo-4-(trifluoromethyl)-1(2H)-pyrimidinyl]-4-fluorophenyl}imino}-5-(methoxymethyl)-4-oxo-3-thiazolidine-acetate]",Herbicidal rating ABUTH,[1]; rate 0.0156 kg/ha,9.0
same,Herbicidal rating ABUTH,[1]; rate 0.0313 kg/ha,9.0
same,Herbicidal rating ABUTH,[1]; rate 0.0625 kg/ha,9.0
same,Herbicidal rating AMBEL,[2]; rate 0.0156 kg/ha,7.0
same,Herbicidal rating AMBEL,[2]; rate 0.0313 kg/ha,7.0
same,Herbicidal rating AMBEL,[2]; rate 0.0625 kg/ha,9.0
same,Herbicidal rating IPOHE,[3]; rate 0.0156 kg/ha,9.0
same,Herbicidal rating IPOHE,[3]; rate 0.0313 kg/ha,9.0
same,Herbicidal rating IPOHE,[3]; rate 0.0625 kg/ha,9.0
same,Herbicidal rating ECHCG,[4]; rate 0.0156 kg/ha,0.0
same,Herbicidal rating ECHCG,[4]; rate 0.0313 kg/ha,0.0
same,Herbicidal rating ECHCG,[4]; rate 0.0625 kg/ha,0.0
same,Herbicidal rating SETVI,[5]; rate 0.0156 kg/ha,0.0
same,Herbicidal rating SETVI,[5]; rate 0.0313 kg/ha,0.0
same,Herbicidal rating SETVI,[5]; rate 0.0625 kg/ha,5.0
same,Herbicidal rating GLXMAW,[6]; rate 0.0156 kg/ha,5.5
same,Herbicidal rating GLXMAW,[6]; rate 0.0313 kg/ha,4.0
same,Herbicidal rating GLXMAW,[6]; rate 0.0625 kg/ha,5.5
same,Herbicidal rating TRZAWR,[7]; rate 0.0156 kg/ha,3.0
same,Herbicidal rating TRZAWR,[7]; rate 0.0313 kg/ha,3.5
same,Herbicidal rating TRZAWR,[7]; rate 0.0625 kg/ha,4.0
same,Preemergence herbicidal rating CASOB,[8]; rate 0.0313 kg/ha,0.0
same,Preemergence herbicidal rating CASOB,[8]; rate 0.0625 kg/ha,0.0
same,Preemergence herbicidal rating CASOB,[8]; rate 0.2500 kg/ha,0.0
same,Preemergence herbicidal rating CHEAL,[9]; rate 0.0313 kg/ha,9.0
same,Preemergence herbicidal rating CHEAL,[9]; rate 0.0625 kg/ha,9.0
same,Preemergence herbicidal rating CHEAL,[9]; rate 0.1250 kg/ha,9.0
same,Preemergence herbicidal rating CHEAL,[9]; rate 0.2500 kg/ha,9.0
same,Preemergence herbicidal rating GALAP,[10]; rate 0.0313 kg/ha,0.0
same,Preemergence herbicidal rating GALAP,[10]; rate 0.0625 kg/ha,4.0
same,Preemergence herbicidal rating GALAP,[10]; rate 0.1250 kg/ha,4.0
same,Preemergence herbicidal rating GALAP,[10]; rate 0.2500 kg/ha,9.0
same,Preemergence herbicidal rating IPOHE,[11]; rate 0.0313 kg/ha,0.0
same,Preemergence herbicidal rating IPOHE,[11]; rate 0.0625 kg/ha,3.0
same,Preemergence herbicidal rating IPOHE,[11]; rate 0.1250 kg/ha,9.0
same,Preemergence herbicidal rating IPOHE,[11]; rate 0.2500 kg/ha,9.0
same,Preemergence herbicidal rating ECHCG,[12]; rate 0.0313 kg/ha,0.0
same,Preemergence herbicidal rating ECHCG,[12]; rate 0.0625 kg/ha,0.0
same,Preemergence herbicidal rating ECHCG,[12]; rate 0.1250 kg/ha,0.0
same,Preemergence herbicidal rating ECHCG,[12]; rate 0.2500 kg/ha,0.0
same,Preemergence herbicidal rating ZEAMX,[13]; rate 0.0313 kg/ha,0.0
same,Preemergence herbicidal rating ZEAMX,[13]; rate 0.0625 kg/ha,1.0
same,Preemergence herbicidal rating ZEAMX,[13]; rate 0.1250 kg/ha,2.0
same,Preemergence herbicidal rating ZEAMX,[13]; rate 0.2500 kg/ha,5.0
